Assay results reported in patent publication US9796707B2, “Piperazine derivatives for treating disorders” (The University of Nottingham, priority 2014, dated 2017).
Each block holds one molecule with its values, some of them ahead of it.

What was measured:
[1] = type: cell-based
Text: To test whether compounds of Formula (I) are safe to administer to patients we began a basic safety test of these compounds in vitro.

[2] = tested on: choroidal neovascularisation; conditions: mouse CNV, eye drops, previously shown; cited from earlier work
[3] = Scleral permeability, modified Ussing chamber; type: in vitro ADME; conditions: rabbit
Description: Scleral permeability was measured using a modified Ussing chamber assembly in isotonic assay buffer (pH 7.4). Rabbit or porcine excised eye tissues were mounted in the chambers such that the episcleral side faced the donor chamber and the retinal side faced the receiver chamber. The chambers were filled with equal volumes of assay buffer, with (donor side) or without (receiver side) 1 μg/ml compound. After 4 or 24 hours tissue was removed from the chamber and the receiver side (“vitreous”) sampled. Tissue was dissected into sclera, choroid/RPE, and retina and homogenised.
After 0, 4 or 24 hours, the fluid from the bottom chamber (vitreous) and the retinal tissue was isolated and compounds purified by acetonitrile extraction and HPLC.

[4] = Solubility in water
[5] = mouse, in vivo
Description: Mice were treated for six days with 2 μg per eye SPHINX31 as eye drops, and ERG carried out using a Micron IV Ganzfield ERG system as recommended by the manufacturers instructions.
Scotopic ERG recordings were taken in dark adapted animals following stimulation with increasing intensities of green (FIGS. 20A, 20C, 20E, 20G) light (to activate M-cones and rods) or UV (FIGS. 20B, 20D, 20F, 20H) light (to activate S-cones and rods). […] ERG amplitude at different intensities of green (FIGS. 20C, 20E) or UV (FIGS. 20D, 20F) are shown for the A wave (FIGS. 20C, 20D) and B wave (FIGS. 20E, 20F).

[6] = Half life in human liver microsomes
Description: We also tested the half life of these compounds when exposed to human liver microsomes.

[7] = tested on: SRSF1 nuclear localisation in PC3 prostate cancer cells; experiment: SRSF1 localisation by immunofluorescence
[8] = tested on: SRSF1 nuclear localisation in MDA-MB231 cells; experiment: SRSF1 localisation by immunofluorescence
[9] = tested on: neovascular AMD; conditions: 0.5 mg monthly, at one year; cited from earlier work

Molecule: CN(C)CCN1CCN(c2ccc(C(F)(F)F)cc2NC(=O)c2ccc(-c3ccncc3)o2)CC1 [SPHINX7]
toxic doses [1]: greater than 10 μM

Molecule: O=C(Nc1cc(C(F)(F)F)ccc1N1CCCCC1)c1ccncc1 [SRPIN340]
eye drop concentration of maximum effect [2]: 10 µg/mL

Molecule: Cc1ccc(C(=O)Nc2cc(C(F)(F)F)ccc2N2CCOCC2)o1 [SPHINX]
eye drop concentration of maximum effect [2]: 10 µg/mL

detection in retina ([3]; 4 hrs): could not
detection in vitreous (bottom chamber) ([3]; 4 hrs): could not
detection in vitreous (bottom chamber) ([3]; 24 hours): detected
Molecule: Cc1ccc(Nc2nccc(N(C)c3ccc4c(C)n(C)nc4c3)n2)cc1S(N)(=O)=O [pazopanib]

solubility in water of salt forms [4]: more freely soluble in water
Molecule: O=C(Nc1cc(C(F)(F)F)ccc1N1CCN(Cc2ccncc2)CC1)c1ccc(-c2ccncc2)o1 [Compound 14]

Molecule: O=C(Nc1cc(C(F)(F)F)ccc1N1CCN(Cc2ccccn2)CC1)c1ccc(-c2ccncc2)o1 [Compound 12]
effect on scotopic or photopic activity [5]: No effect
solubility in water of salt forms [4]: more freely soluble in water
Half life [6]: 1.025 h
SRSF1 localisation [7]: inhibited cellular localisation
SRSF1 localisation [8]: inhibited cellular localisation

solubility in water of salt forms [4]: more freely soluble in water
Molecule: O=C(Nc1cc(C(F)(F)F)ccc1N1CCN(Cc2cccnc2)CC1)c1ccc(-c2ccncc2)o1 [Compound 13]

B1: Lucentis: novel humanized anti-VEGF antibody fragment (antibody, chains of the INN, looked up, V domains shown)
VH: EVQLVESGGGLVQPGGSLRLSCAASGYDFTHYGMNWVRQAPGKGLEWVGWINTYTGEPTYAADFKRRFTFSLDTSKSTAYLQMNSLRAEDTAVYYCAKYPYYYGTSHWYFDVWGQGTLVTVSS
VL: DIQLTQSPSSLSASVGDRVTITCSASQDISNYLNWYQQKPGKAPKVLIYFTSSLHSGVPSRFSGSGSGTDFTLTISSLQPEDFATYYCQQYSTVPWTFGQGTKVEIK
modifications: Fab
notes: novel humanized anti-VEGF antibody fragment
patients who maintained visual acuity (loss of <15 letters) [9]: approximately 95%
patients with improved vision (gain of ≧15 letters) [9]: ≤ 40%
